Test results published in patent US20090298103A1, “Predicting hemostatic risk; dependence on plasma composition” (The University of Vermont and State Agriculture College, priority 2008, published 2009).
Read-outs that look alike come from different tables or passages of the source.

Legend:
[1] = target: fXa in prothrombinase (Homo sapiens, UniProt P00742); details: cited from earlier work
[2] = system: thrombin formation after resupply; assay: Synthetic coagulation proteome, resupply response (therapeutic anticoagulation); assay type: biochemical, human
Protocol: (§1) Synthetic Coagulation Model—The procedure used is a modification of Lawson et al. [Lawson, J. H., Kalafatis, M., Stram, S., and Mann, K. G. (1994) J. Biol. Chem. 269, 23357-23366] and van't Veer et al. [van't Veer, C. and Mann, K. G. (1997) J. Biol. Chem. 272, 4367-4377]. Relipidated Tf at 5 pM final concentration was added to a mixture of fII, fV, fVII, fVIIIa, fVIII, fIX, fX, fXI, TFPI, and AT (all at mean physiologic concentrations) (43) in 20 mM HEPES/150 mM NaCl (HBS) with 2 mM CaCl2 containing 2 μM PCPS. Pharmacologic agents were incorporated into the reaction mixture prior to addition of the Tf reagent. Resupply was conducted at 20 min post Tf initiation by the addition of an equal volume of a freshly constituted, Tf free mixture containing procofactors, zymogens and inhibitors in HBS with 2 mM CaCl2 and 2 μM PCPS to an ongoing reaction. Pharmacologic agents were present in the resupply mixture at twice their final concentration.
(§2) Thrombin generation over time was measured in a chromogenic assay using Spectrozyme TH and a THERMOmax microplate reader (Molecular Devices Corp., Menlo Park, Calif.). In experiments assessing the reversible thrombin inhibitor DAPA, rates of thrombin generation were calculated by reference to a standard curve relating thrombin concentration to rates of substrate hydrolysis in the presence of relevant DAPA concentrations.
Therapeutic Anticoagulation—We have previously reported that one outcome in closed model systems of Tf-initiated coagulation is the formation of a relatively stable prothrombin activating potential which responds to the introduction of a new supply of reactants with an immediate burst of thrombin production, i.e., a “resupply response” (see U.S. application Ser. No. 10/507,661). There is shown in FIGS. 32A-D and 33A-D computational (FIGS. 32A,C; FIGS. 33A,C) and representative empirical (FIGS. 32B,D; FIGS. 33B,D) assessments of the efficacy of each anticoagulant in suppressing the resupply response. Computational and empirical time courses of thrombin formation are shown for the final 5 min of the Tf-initiated process and for the resupply phase.

[3] = system: Tf-initiated thrombin formation; assay: Synthetic coagulation proteome, Tf-initiated thrombin generation (prophylactic anticoagulation); assay type: biochemical, human
Source text: Materials—Human coagulation fVII, fX, fIX, and prothrombin (fII), were isolated from fresh frozen plasma using the methods of Bajaj et al., and were purged of traces of active enzymes. FXI was purified using the monoclonal anti-fXI antibody α-fXI-2. Human fV and AT were isolated from freshly frozen plasma. The following were provided as gifts: recombinant fVIII and recombinant Tf (residues 1-242); recombinant human fVIIa; and recombinant full-length tissue factor pathway inhibitor (TFPI). Corn trypsin inhibitor (CTI) was isolated from popcorn. The preparation of the Tf/lipid reagent was performed. 1,2-Dioleolyl-sn-Glycero-3-Phospho-L-Serine (PS) and 1,2-Dioleoyl-sn-Glycero-3-Phosphocholine (PC) were purchased from Avanti Polar Lipids, Inc (Alabaster, Ala.), and EDTA was purchased from Sigma (St Louis, Mo.). Phospholipid vesicles (PCPS) composed of 75% PC and 25% PS and were prepared.
as §1, §2
Incorporation of Anticoagulants into the Mathematical Model—FIG. 27 presents the sets of equations describing the mechanisms of action of each of the anticoagulants used in this study and FIG. 28 presents the rate constants controlling the identified bimolecular interactions and the dosing ranges recommended for prophylactic and therapeutic applications. Details of modeling the various anticoagulant interactions are described herein and in the Methods section. Prophylactic Anticoagulation—There is shown in FIGS. 30A and 30 C computational assessments and in FIGS. 30B and D empirical assessments of the efficacy of each anticoagulant in suppressing the onset of Tf-initiated thrombin formation. In both empirical and computational studies, a 5 pM Tf reagent stimulus was used and thrombin generation assessed over 20 min. Results are presented that compare thrombin generation in the absence of anticoagulant (♦) to that observed over the range of anticoagulant concentrations that drive the transition from partial to maximum suppression of thrombin formation. […]

[4] = target: fXa (Homo sapiens, UniProt P00742); details: cited from earlier work
[5] = system: prothrombin; assay: Western blot of prothrombin consumption during resupply in the synthetic coagulation proteome; assay type: biochemical, human
Protocol: Gel Electrophoresis and Western Blotting—Resupply time course samples were quenched into an equal volume of 50 mM EDTA, 50 μM FPRck in HBS and 4 μl aliquots (potentially containing 100 ng prothrombin) were made 2% in SDS and 2% in β-mercaptoethanol and analyzed by SDS-PAGE. Protein species were separated on 4 to 12% linear gradient gel and transferred to nitrocellulose membranes (Bio-Rad Laboratories Inc., US). FII and its activation products were probed for using a polyclonal burro anti-human prethrombin 1 antibody. Reactive bands were detected using goat anti-equine horseradish peroxidase conjugated IgG (Southern Biotechnology, Birmingham Ala.) with a chemiluminescence reagent (Perkin Elmer, Boston Mass.) and Kodak X-OMat film.
Prothrombin Consumption during Resupply—In FIGS. 32B, 32D and 33D, the estimates of UFH, Fpx and DAPA efficacy potentially represent a combination of 2 modes of anticoagulant action: their relative reactivity toward preformed catalytic complexes and their direct inhibition of thrombin formed during the reaction. […]

[6] = system: contact pathway inhibited blood; assay: Contact pathway inhibited whole blood, Tf-initiated TAT formation; assay type: biochemical, human; details: increasing concentrations incorporated into blood prior to Tf (5 pM)
Source text: (§3) Whole Blood Model—The protocol used is a modification of Rand et al. [Orfeo, T., Butenas, S., Brummel-Ziedins, K. E., and Mann, K. G. (2005) J. Biol. Chem. 280, 42887-42896; Rand, M. D., Lock, J. B., van't Veer, C., Gaffney, D. P., and Mann, K. G. (1996) Blood 88, 3432-3445]. A healthy donor was recruited, advised according to a protocol approved by the University of Vermont Human Studies Committee and their consent was obtained. […] Blood was drawn by venipuncture and immediately delivered into the reagent-loaded tubes. In general, 2 sets of aliquots of CTI treated blood were initiated with […] Tf reagent. One set was quenched at 1 min intervals while the other was incubated for 20 min. […] This resupply blood contained CTI alone (0.1 mg/ml), CTI+2 uM fondaparinux or CTI+320 nM C921-78. After the experiment, the tubes are centrifuged and the supernatants are aliquoted and analyzed for TAT levels. A subset of tubes containing either Fpx or C921-78 were initiated with 5 pM Tf reagent, quenched at 20 min and analyzed for TAT levels.
(§4) Anticoagulant Efficacy in Whole Blood—To test whether results from the computational and proteome based analyses would extrapolate to a more complex empirical model, the efficacy of anticoagulants in suppressing thrombin generation was addressed in contact pathway inhibited blood in both Tf-initiated and resupply regimens. […]

[7] = system: contact pathway inhibited blood; assay: Contact pathway inhibited whole blood, resupply; assay type: biochemical, human; details: 160 nM C921-78
Source text: as §3, §4

[8] = target: thrombin and meizotirombin (mIIa); details: cited from earlier work
[9] = Light scattering measurement of Protein S depolymerization on Ca++ addition; assay type: physicochemical
Source text: Open squares: commercial PS and closed squares: in-house PS.
In regards to Protein S (PS) a Tf-based assay for PS in CTI-inhibited recalcified PS deficient plasma was developed. […] Dilutions of a normal plasma pool fall on this curve (open symbols). […] The convergence of plasma dilution data with the purified protein curve lends support of the preservation of natural PS quality in the material we isolate. The rate of depolymerization of Ca^++ free PS upon addition of Ca^++ using light scattering (FIG. 26B) was evaluated.

[10] = target: T1, fVIIa (Homo sapiens, UniProt P08709); assay: Factor VIIa titrations of Tf proteins in the absence of lipid; assay type: biochemical; details: in complex with fVIIa, Tf 0.1 nM, no lipid
T1 construct: Novo Nordisk (gift)
Protocol: FIG. 24 is a graphical view of factor VIIa titrations of recombinant Tf (rTf) 1-263, rTf 1-242 and human placental Tf (all at 0.1 nM) in the absence of lipid.
Reports of physical studies of Tf have made use of SDS-PAGE, amino acid analyses and presumed stoichiometry of binding. In a most recent review, a Tf molecular weight of 47 kDa is cited, introducing a 30% error for any experimental physical parameter regarding Tf and its interactions. Tf proteins are distinguished by functional activities in simple as well as in complex reaction systems (FIGS. 24, 25).

[11] = system: thrombin generation; assay: Thrombin generation in reconstituted coagulation platelet proteome; assay type: biochemical, human
Source text: FIG. 25 is a graphical view of thrombin generation in synthetic plasma with platelets (2×10^8/ml). Notice monocyte in situ and monocyte purified.

T1 sequence (P08709 213-466 limits assumed, one chain of several): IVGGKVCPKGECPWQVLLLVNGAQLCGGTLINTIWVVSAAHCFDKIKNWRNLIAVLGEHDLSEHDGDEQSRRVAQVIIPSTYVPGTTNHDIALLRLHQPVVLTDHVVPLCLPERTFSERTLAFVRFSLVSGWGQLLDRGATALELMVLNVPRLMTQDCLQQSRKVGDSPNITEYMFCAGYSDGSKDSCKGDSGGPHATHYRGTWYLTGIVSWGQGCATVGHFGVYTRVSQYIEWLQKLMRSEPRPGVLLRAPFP
T1 sequence (P08709 61-212 partner limits assumed, one chain of several): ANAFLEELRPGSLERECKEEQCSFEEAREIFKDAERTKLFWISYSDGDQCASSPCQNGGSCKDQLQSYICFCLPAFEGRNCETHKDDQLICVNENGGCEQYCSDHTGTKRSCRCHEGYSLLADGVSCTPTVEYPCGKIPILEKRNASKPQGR
Sequence of fXa (P00742 235-488 limits assumed): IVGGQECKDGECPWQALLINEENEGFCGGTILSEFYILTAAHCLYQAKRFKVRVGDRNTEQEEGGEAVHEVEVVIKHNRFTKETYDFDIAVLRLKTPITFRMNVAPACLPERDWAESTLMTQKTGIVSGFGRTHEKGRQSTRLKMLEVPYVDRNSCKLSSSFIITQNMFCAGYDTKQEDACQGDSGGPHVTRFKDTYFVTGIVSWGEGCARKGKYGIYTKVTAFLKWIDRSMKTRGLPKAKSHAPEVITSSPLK
Sequence of fXa (P00742 41-179 partner limits assumed): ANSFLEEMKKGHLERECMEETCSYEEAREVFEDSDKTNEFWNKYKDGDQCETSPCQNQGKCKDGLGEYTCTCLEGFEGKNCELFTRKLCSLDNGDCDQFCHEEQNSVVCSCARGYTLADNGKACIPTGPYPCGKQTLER
Sequence of fXa in prothrombinase (P00742 235-488 limits assumed): as the sequence (P00742 235-488 limits assumed) above
Sequence of fXa in prothrombinase (P00742 41-179 partner limits assumed): as the sequence (P00742 41-179 partner limits assumed) above
Sequence of fXa in prothrombinase (P12259 29-737 partner limits assumed): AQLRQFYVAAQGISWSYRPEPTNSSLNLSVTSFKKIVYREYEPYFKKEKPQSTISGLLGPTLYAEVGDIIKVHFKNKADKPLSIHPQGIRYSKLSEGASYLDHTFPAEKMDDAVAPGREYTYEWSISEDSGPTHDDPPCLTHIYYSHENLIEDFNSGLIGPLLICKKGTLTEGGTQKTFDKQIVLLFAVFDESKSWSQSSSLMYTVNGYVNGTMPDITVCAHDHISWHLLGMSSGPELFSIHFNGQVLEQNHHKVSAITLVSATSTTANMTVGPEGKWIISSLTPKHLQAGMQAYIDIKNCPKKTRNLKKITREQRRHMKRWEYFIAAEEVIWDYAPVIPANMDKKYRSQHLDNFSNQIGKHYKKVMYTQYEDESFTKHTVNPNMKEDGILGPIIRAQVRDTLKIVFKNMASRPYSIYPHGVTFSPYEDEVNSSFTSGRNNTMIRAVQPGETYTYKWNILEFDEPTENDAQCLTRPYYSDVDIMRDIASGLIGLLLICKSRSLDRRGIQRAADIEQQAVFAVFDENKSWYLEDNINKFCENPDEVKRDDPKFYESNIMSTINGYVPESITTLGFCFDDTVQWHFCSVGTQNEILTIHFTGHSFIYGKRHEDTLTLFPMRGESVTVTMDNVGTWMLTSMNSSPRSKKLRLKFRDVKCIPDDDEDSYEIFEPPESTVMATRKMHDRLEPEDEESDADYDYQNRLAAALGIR
Sequence of fXa in prothrombinase (P12259 1574-2224 partner limits assumed): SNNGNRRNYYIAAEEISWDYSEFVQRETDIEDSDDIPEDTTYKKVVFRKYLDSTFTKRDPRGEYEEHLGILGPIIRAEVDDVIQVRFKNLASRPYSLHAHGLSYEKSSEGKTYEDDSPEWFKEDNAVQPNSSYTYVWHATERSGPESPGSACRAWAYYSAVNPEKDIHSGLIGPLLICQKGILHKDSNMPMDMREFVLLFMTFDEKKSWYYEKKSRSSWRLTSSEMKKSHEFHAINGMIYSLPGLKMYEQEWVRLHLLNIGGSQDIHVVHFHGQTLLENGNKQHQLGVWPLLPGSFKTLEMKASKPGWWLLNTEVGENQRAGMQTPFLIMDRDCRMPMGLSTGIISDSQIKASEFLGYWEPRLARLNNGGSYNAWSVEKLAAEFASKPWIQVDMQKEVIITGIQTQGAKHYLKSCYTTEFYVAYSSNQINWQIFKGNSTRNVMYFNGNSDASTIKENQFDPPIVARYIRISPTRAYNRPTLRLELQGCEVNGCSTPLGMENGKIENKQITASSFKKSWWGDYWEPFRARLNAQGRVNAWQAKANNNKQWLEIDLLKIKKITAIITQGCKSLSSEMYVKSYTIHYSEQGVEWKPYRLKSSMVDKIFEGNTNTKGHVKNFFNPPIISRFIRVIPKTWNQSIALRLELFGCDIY

N=C(N)NCCCC(NS(=O)(=O)c1ccccc1)C(=O)NCC(=O)NC(CCCNC(=N)N)C(=O)c1nccs1 [C921-78, Benzenesulfonyl-D-Arg-Gly-Arg-ketothiazole]
Kd [1]: 0.022 nM
maximum thrombin levels ([2]; 70 nM C921-78): 35 nM
time of maximum thrombin level post resupply ([2]; 70 nM C921-78): 4 min
maximum thrombin levels ([2]; 100 nM C921-78): ~25 nM
time of maximum thrombin level post resupply ([2]; 100 nM C921-78): 10 min
delay of thrombin generation ([2]; 160 nM C921-78): 11 min
maximum thrombin levels ([2]; 160 nM C921-78): 14 nM
displacing the onset of thrombin generation ([3]; 1 nM C921-78): somewhat more effective than computationally predicted
effects on maximum rate and concentrations of IIa ([3]; 1 nM C921-78): minimal effects
thrombin generation ([3]; 10 nM C921-78): completely suppressed
Kd [4]: ~0.014 nM
prothrombin consumption at 15 min ([5]; 160 nM C921-78, densitometric analyses): ~10%
TAT levels at 20 min [6]: decreases in TAT levels
prothrombin consumption (immunoblots) [7]: minimal

CCC1CCN(C(=O)C(CCCNC(=N)N)NS(=O)(=O)c2cccc3c(N(C)C)cccc23)CC1 (stereo not shown) [DAPA, dansylarginine-N-[3-ethyl-1,5-pentanediyl]amide]
Kd ([8]; thrombin and meizothrombin): 20 to 40 nM
Kd ([8]; value used in the model (FIG. 27)): 40 nM
difference in rate or maximum final level of IIa=DAPA between the 2 DAPA concentrations ([2]; 10 μM vs 100 μM DAPA): No substantial difference in rate or maximum final level
effect on prothrombin consumption ([3]; 20 μM DAPA): only attenuating the maximum rate of prothrombin consumption
total prothrombin consumption ([3]; 100 μM DAPA): ~20 nM
blocking prothrombin consumption in the resupply format ([5]; DAPA): completely ineffective

PS: purified in-house Protein S preparation
half time of depolymerization of Ca++ free PS upon addition of Ca++ ([9]; 25° C.): approximately 100 s

commercial preparation of PS (ERL): commercial preparation of Protein S (ERL)
depolymerization behavior ([9]; commercial preparation (ERL)): does not show this depolymerization behavior

placental Tf: natural human placental tissue factor isolated by monoclonal antibody procedure
Kd compared with the recombinant proteins [10]: lower Kd
Vmax compared with the recombinant proteins [10]: higher Vmax

B1: monocyte Tf: tissue factor from THP-1 monocytes after stimulation with LPS (protein, UniProt P13726 33-295, looked up)
Tissue factor: SGTTNTVAAYNLTWKSTNFKTILEWEPKPVNQVYTVQISTKSGDWKSKCFYTTDTECDLTDEIVKDVKQTYLARVFSYPAGNVESTGSAGEPLYENSPEFTPYLETNLGQPTIQSFEQVGTKVNVTVEDERTLVRRNNTFLSLRDVFGKDLIYTLYYWKSSSSGKKTAKTNTNEFLIDVDKGENYCFSVQAVIPSRTVNRKSTDSPVECMGQEKGEFREIFYIIGAVVFVVIILVIILAISLHKCRKAGVGQSWKENSPLNVS
activity relative to monocyte Tf reconstituted on synthetic membranes [11]: ~400 ×
